Laboratory results: patent US20220233523A1, “ANTIBIOTIC POTENTIATION FOR NONTUBERCULOUS MYCOBACTERIAL DISEASE” (priority 2019, published 2022)
“Also recorded” adds a separate entry of the source.

Assays:
MAH 3393 biofilm = assay: Amikacin with short-chain fatty acids on biofilm of lung isolate MAH 3393; format: cell-based; conditions: amikacin concentration: 4 mg/ml; untreated 1.0 +/− 0.8 × 10^8
MAH 3388 biofilm = assay: Amikacin with short-chain fatty acids on biofilm of lung isolate MAH 3388; format: cell-based; conditions: for CFU/mL, MAH 3388: amikacin concentration: 4 mg/ml, untreated 9.4 +/− 0.2 × 10^7; for activity to potentiate Amikacin activity: biofilms of MAH 3388
Procedure: As a negative control, biofilms were incubated only with non-supplemented 7H9 without any antibiotics. […] Subsequently, 100 μl of 0.02% of Triton X-100 (final concentration 0.01%) was added to the established biofilms to mix, dilute and perform CFU analysis with the entire population of biofilms (attached and unattached).
Biofilms were established from an MAH strain isolated from the lungs of a patient (MAH 3388).

[1] = system: M. avium 104 static biofilms; assay: Static biofilm formation in the presence of metabolites (crystal violet); format: cell-based, Mycobacterium avium subsp hominissuis 104 (MAH104); conditions: for biofilm formation with 1% and 0.5% of fatty acid: 7H9, 7 days at 37° C., crystal violet
Procedure: Static biofilms were used in the present study as described previously (Rose S J, Bermudez L E., Infection and Immunity 2014; 82:405-12). Briefly, mycobacteria were taken from 7H10 agar plates and resuspended in deionized water (10^9 of colony forming units/ml; CFU/ml). The bacterial suspension was then washed 3 times with deionized water to remove any remaining of 7H10 media (3500 rpm for 20 minutes at 20° C.). After washing, the MAH104 were resuspended in 7H9 medium without any carbon sources (OADC, glycerol, tween 20 and tween 80) (non-supplemented 7H9) and suspensions were left alone to allow clumped bacteria to settle. The top half of the suspension was transferred to new tube and adjusted to 1×10^8 CFU/ml, using visual turbidity and optical density. Suspensions were inoculated in 96-well polystyrene plates (BD, Franklin Lakes, N.J.) (100 μl for each well [or 10^7 bacteria per well]) and biofilms were formed at 37° C. for 7 days or for 14 days when indicated. […] The raw O.D. at 570 nm values were discounted from O.D. 570 nm average of blank wells (wells with only 7H9 media).
Assays with biofilms incubated with propionic acid, butyric acid, and glycerol were performed to test whether these metabolites affect the formation of biofilms. All the experiments were made in non-supplemented 7H9. The effect of these metabolites was evaluated during biofilm formation, in pre-established biofilms and in M. avium cells pre-attached to polystyrene. To evaluate the effect of targeted metabolites during biofilm formation, mycobacteria suspensions were prepared and inoculated in 96 wells polystyrene plates, as already described, and biofilms were formed in the presence or not of the short-chain fatty acids at different concentrations (1%, 0.5%, 0.1%, 0.05% and 0.01%). For glycerol, only 0.2% was used. The biofilms were formed in 7H9 media at 37° C. for 7 days. For pre-established biofilms, MAH104 was again inoculated in 96 wells plates and biofilms were formed as described herein. […] It was also evaluated whether these metabolites could promote the growth of MAH104 cells present in biofilms through the measurement of […] every 24 hours. Finally, mycobacteria suspension with low density made in 7H9 broth (containing 1×10^6 bacteria/ml) were seeded in 96 wells polystyrene plates and incubated for 7 days at 37° C. […] The growth of pre-attached bacterial cells was followed every 24 hours through O.D.595 nm. The biofilm formation was evaluated by crystal violet.
The next step was to evaluate the capacity of tested substrates to promote the growth of mycobacteria cells that are present in biofilms. […] MAH 104 cells in the presence of non-supplemented 7H9 were used as a negative control. […]

MAH104 biofilms = format: cell-based, Mycobacterium avium subsp hominissuis 104 (MAH104); conditions: O.D.590 nm, biofilm vs planktonic
Procedure: Metabolic phenotype study was performed with planktonic and biofilm cultures using the 96-well plates PM1 and PM2A (BIOLOG™, Hayward, Calif.). The assays with planktonic cells and biofilms were made at the same time. Each plate contains carbon substrates and one negative control well, in which the bacteria is tested without any substrate. The tests with planktonic and biofilm cultures were performed at the same time and the culture inoculum have the same number of passages. […] The experiments were made as an end-point assay.
The cultures of biofilms were established for 7 days in regular polystyrene 96 well plates, not in PM Biolog plates, as described above with a minor difference. […] (total of 14 days of biofilm incubated at 37° C.). To obtain spectrophotometric measurements from biofilm cultures (O.D.590 nm), the plate was centrifuged for 20 minutes at 3500 rpm at 20° C., which reduce bacteria interference with the readings, and biofilm supernatant was transferred to a new 96 well plates for O.D.590 nm measurement.
Experiments were performed three times as an end-point assay. If planktonic and/or biofilm cultures were able to metabolize a specific metabolite substrate, electrons from NADH reduce the Redox dye in an irreversible reaction that generates a purple color in the PM plate wells. The signal (+) and (−) indicates, respectively, whether a purple color was produced or not. Abiotic reductions of the Redox dye were assessed through adding bacteria-free GN/GP-IF-0a fluid in the wells. Negative control corresponds to the wells without any metabolic substrate.

| Structure (SMILES) | CFU/mL, MAH 3393 (MAH 3393 biofilm) | CFU/mL, MAH 3388 (MAH 3388 biofilm) | activity to potentiate Amikacin activity (MAH 3388 biofilm) | biofilm formation with 1% and 0.5% of fatty acid [1] | lower capacity of biofilms to use the substrate compared with planktonic cultures (MAH104 biofilms) | increase in biofilm formation in comparison with non-supplemented 7H9 ([1]; glycerol 0.2%, 7 days) |
| --- | --- | --- | --- | --- | --- | --- |
| CCCC(=O)O [Butyric acid] | 6.2 +/− 0.7 × 10^7 CFU/mL | 9.7 +/− 0.6 × 10^7 CFU/mL | confirmed | same results; also recorded: significant decrease |  |  |
| OCC(O)CO [Glycerol] |  |  |  |  | 11.14 fold | 3.2 × |
| CCC(=O)O [Propionic acid] | 1.7 +/− 0.4 × 10^7 CFU/mL | 9.6 +/− 0.4 × 10^7 CFU/mL | confirmed | unable to form biofilm; also recorded: significant decrease | 5.49 fold |  |
